Experiments:
[1] = target: T1, G-actin (Oryctolagus cuniculus, UniProt P68135); assay: Pyrenyl-actin G-actin polymerization assay; assay type: biochemical, rabbit; conditions: 16.7 µM peptide, 2 μM MgATP–G-actin with 10% pyrenyl-labeled actin, 22 °C
T1 construct: Actin was purified from rabbit muscle as CaATP–G-actin complex; from tissue; host or cells: rabbit muscle
Protocol: Actin was purified from rabbit muscle as CaATP–G-actin complex according to the published method using Supredex S200 (Cytiva Lifesciences) size exclusion chromatography in a buffer G composed of 5 mM Tris/HCl, pH 7.8, 0.2 mM CaCl2, 0.2 mM ATP, 0.5 mM dithiothreitol, and 0.01% NaN3. The purified G-actin was fluorescently labeled on Cys-374 with N-(1-pyrene) iodoacetamide (Invitrogene) to a molar ratio of 0.8 to 1.0 pyrene/G-actin, as described previously. CaATP–G-actin was converted into MgATP–G-actin by incubation on ice for 20 min with 20 μM MgCl2 and 0.2 mM EGTA to 10 μM and was used within 1 h.
G-actin polymerization was monitored by following the increase in the fluorescence of 10% pyrenyl-labeled actin. […] Fluorescence measurements were carried out at 22 °C in a Horiba/Jobin Yvon FluoroLog Spectrofluorometer using excitation and emission wavelengths of 365 and 407 nm, respectively. Data were analyzed using GraphPad Prism4.1.681 for Windows software (San Diego, CA, USA).
Figure 5 D-Δ(1-18)N-Ter-Antp altered actin filament organization (A,B) U-87MG cells were cultured and incubated for 24 h with D-Δ(1-18)N-Ter-Antp (10 µM). Cells were stained for actin using Phalloidin-488 and visualized by confocal microscopy (A) and quantified for Phalloidin-488 staining intensity (B). […] (D) Actin interaction with VDAC1 analyzed using the MST method. […]

[2] = test system: U-87MG (human glioblastoma); assay: Cell death by PI staining and flow cytometry (FACS), U-87MG; assay type: cell-based; conditions: U-87MG cells
Protocol: MEC-1 cells were incubated in a serum-free medium with various concentrations of VDAC1-based peptides for 1.5 h at room temperature (RT), collected by centrifugation, washed with phosphate-buffered saline (PBS), and analyzed for cell death. Adherent cancer cells were seeded in culture plates and allowed to adhere overnight in a sterile cell culture incubation chamber maintained at 37 °C and 5% CO2. The next day, media was removed from the plates, and cells were treated with various concentrations of VDAC1-based peptides for the indicated time in serum-free Dulbecco’s Modified Eagle Medium (DMEM) with and without DMSO (final 0.15%) as a control for 6 h at 37 °C and 5% CO2. Cells were trypsinized, centrifuged (1500× g, 5 min), and washed with PBS.
Cell death was analyzed by the propidium iodide (PI) staining, followed by flow cytometry with the iCyt sy3200 Benchtop Cell Sorter/Analyzer and analysis with EC800 v 1.3.7 software (Sony Biotechnology Inc., San Jose, CA, USA). Apoptosis was analyzed by PI and annexin V-FITC staining, which was carried out according to the manufacturer’s instructions with minor modifications. U-87MG cells, untreated (control) or treated with various concentrations of VDAC1-based peptides, were harvested and washed once with binding buffer (10 mM HEPES/NaOH, pH 7.4, 140 mM NaCl, and 2.5 mM CaCl2). […] Next, cells were washed and PI (6.25 μg/mL), was added immediately before flow cytometry At least 10,000 events were collected, recorded on a dot plot, and analyzed by flow cytometry.
Figure 1 VDAC1-based peptides induced cell death in various cancer cell lines. […] (E) Human cervix adenocarcinoma (HeLa) (▲) and human glioblastoma (U-87MG) (●, ○) cell lines were incubated 6 h with the indicated concentrations of D-Δ(1-18)N-Ter-Antp peptide and analyzed for cell death PI staining and flow cytometry (o,▲) or FITC–annexin V/PI staining and flow cytometry analysis (●). (F) U-87MG cells were treated with 10 µM (○), 20 µM (●) or without (Δ) of D-Δ(1-18)N-Ter-Antp peptide for the indicated times, and cell death was analyzed by PI staining and flow cytometry. […]

Substance: 19-FTKGYGFGL-26- RQIKIWFQNRRMKWKK [D-Δ(1-18)N-Ter-Antp]
- Effect on G-actin polymerization [1]: inhibition of the actin filament assembly
- Cell death in time course ([2]; 3-h incubation, 10 or 20 µM tested (Figure 1F), PI staining): about 70%
- Maximal cell death (at the concentration for maximal cell death) ([2]; 6 h): 70%
- IC50 ([2]; 6 h incubation, serum-free medium, PI staining and FACS, read-out: IC50, peptide concentration required for half-maximal cell death activity): 6 µM

Reference: PMC9599717, “The Multicellular Effects of VDAC1 N-Terminal-Derived Peptide” (Biomolecules, 2022)
